The experiment has as its system mixture of Pseudomonas aeruginosa, Klebsiella pneumoniae, Staphylococcus aureus, and Bacillus subtilis. The experiment can be described thus: Growth inhibition assay (microtiter plate-based synergy assay). In kind it is cell-based. To be noted: 24 h; for concentration needed to prevent at least 90% of the growth (I90) of the microbial consortium: active used alone. An excerpt: Details of each assay are provided below.
Growth Inhibition Assay. […] Regardless of the mechanism of action, the impact of a biocide (or combination of biocides) can be measured over time on the basis of an increase in the size of the community.
The assay measures the efficacy of one or more biocides at preventing growth of a consortium of bacteria in a dilute mineral salts medium. The medium contains (in mg/l) the following components: FeCl3.6H2O (1); CaCl2.2H2O (10); MgSO4.7H2O (22.5); (NH4)2SO4 (40); KH2PO4 (10); K2HPO4 (25.5); Yeast Extract (10); and glucose (100). After all components are added to deionized water, the pH of the medium is adjusted to 7.5. Following filter sterilization, aliquots are dispensed in 100 ul quantities to sterile microtiter plate wells. Dilutions of 2,2-dibromomalonamide (“DBMAL”) and/or “Biocide B” are then added to the microtiter plate. After preparing the combinations of actives as illustrated below, each well is inoculated with 100 μl of a cell suspension containing ca. 1×10^6 cells per milliliter of a mixture of Pseudomonas aeruginosa, Klebsiella pneumoniae, Staphylococcus aureus, and Bacillus subtilis. The final total volume of medium in each well is 300 μl. Once prepared as described herein, the concentration of each active ranges from 25 ppm to 0.195 ppm as illustrated in Table 1. The resulting matrix allows testing of eight concentrations of each active and 64 combinations of actives in the ratios (of actives).
Controls (not shown) contain the medium with no biocide added. After preparing the combinations of actives as illustrated above, each well is inoculated with 100 μl of a cell suspension containing ca. 1×10^6 cells per milliliter of a mixture of Pseudomonas aeruginosa, Klebsiella pneumoniae, Staphylococcus aureus, and Bacillus subtilis. The final total volume of medium in each well is 300 μl.
Immediately after the microtiter plates are prepared, the optical density (OD) readings for each well is measured at 580 nm and the plates are then incubated at 37° C. for 24 hr. After the incubation period, the plates are gently agitated before OD580 values are collected. The OD580 values at T0 are subtracted from T24 values to determine the total amount of growth (or lack thereof) that occurs. These values are used to calculate the percent inhibition of growth caused by the presence of each biocide and each of the 64 combinations.
where • CDBMAL: Concentration of DBMAL required to inhibit ˜90% of bacterial growth when used alone • CB: Concentration of biocide (B) required to inhibit ˜90% of bacterial growth when used alone.
MDBMAL: Concentration of DBMAL required to inhibit ˜90% of bacterial growth when used in combination with biocide (B).
MB: Concentration of biocide (B) required to inhibit ˜90% of bacterial growth when used in combination with DBMAL
The SI values are interpreted as follows:
• SI<1: Synergistic combination • SI=1: Additive combination • SI>1: Antagonistic combination
In the Examples below, the amounts of biocides in the solution are measured in mg per liter of solution (mg/l). Since solution densities are approximately 1.00, the mg/l measurement corresponds to weight ppm. Both units may therefore be used interchangeably in the Examples.

[1] abbreviates: read-out: % Inhibition of growth by SOPP.

Like-named read-outs stand apart in the source and are kept apart here.

For `NC(=O)C(Br)(Br)C(N)=O` [DBMAL, 2,2-dibromomalonamide], the “concentration needed to prevent at least 90% of the growth (I90) of the microbial consortium” value stood at 12.5 mg/L. For the same molecule, the inhibition (commonly the drop in the measured response relative to a control, in per cent) at […] (DBMAL alone 0.19 mg/l, OD580) amounted to 0%. Besides, the inhibition at 0.39 µg/mL (DBMAL alone 0.39 mg/l, OD580) worked out at 4%. The inhibition at 0.78 µg/mL (DBMAL alone 0.78 mg/l, OD580, read-out: % Inhibition of growth by DBMAL) was found to be 7%. Besides, where the note is “DBMAL alone 1.56 mg/l, OD580, read-out: % Inhibition of growth by DBMAL”, the inhibition at 1.56 µg/mL was found to be 0%. For the same molecule, the inhibition at 3.13 µg/mL (DBMAL alone 3.13 mg/l, OD580, read-out: % Inhibition of growth by DBMAL) was determined as 0%. The inhibition at 6.25 µg/mL (DBMAL alone 6.25 mg/l, OD580, read-out: % Inhibition of growth by DBMAL) was determined as 49%. Moreover, the inhibition at 12.5 µg/mL (DBMAL alone 12.5 mg/l, OD580, read-out: % Inhibition of growth by DBMAL) is 100%. The inhibition at 25 µg/mL (DBMAL alone 25.0 mg/l, OD580, read-out: % Inhibition of growth by DBMAL) amounted to 100%.
As to `Oc1ccccc1-c1ccccc1.[Na]` [SOPP, sodium ortho-phenylphenol], the “concentration needed to prevent at least 90% of the growth (I90) of the microbial consortium” value stood at 500 mg/L. Also, under setting [1], the inhibition at 0.78 µg/mL came to 0%, the inhibition at 1.56 µg/mL amounted to 17%, the inhibition at 3.13 µg/mL came out at 0% and the inhibition at 6.25 µg/mL turned out to be 37%. Further, under setting [1], the inhibition at 12.5 µg/mL was found to be 68%, the inhibition at 25 µg/mL was 98% and the inhibition at 50 µg/mL stood at 98%.

These data come from patent publication US8598234B2, “Compositions of dibromomalonamide and their use as biocides” (Dow Global Technologies LLC, priority 2009, dated 2013).
